Consider 1 compound from patent publication US10702506B2, “Small molecule inhibitors of pendrin ion exchange and pharmaceutical compositions” (THE REGENTS OF THE UNIVERSITY OF CALIFORNIA, priority 2016, dated 2020).

Molecules are shown by their SMILES.

The assay has as its system mice (CD-1 and C57Bl/6). The assay can be described thus: Acute furosemide diuresis model in mice. Format: in vivo. The protocol: Pharmacokinetics measurements were done to guide studies of diuretic efficacy. Animal experiments were approved by UCSF Institutional Animal Care and Use Committee. Female CD1 mice (8-10 weeks) were injected with 10 mg/kg PDSinh-C01 (in saline containing 5% DMSO and 10% Kolliphor HS) ip and blood was collected by orbital puncture at 15, 30, 60, 150 and 240 min, and centrifuged at 5000 rpm for 15 min to separate plasma. Urine was collected in metabolic cages. An LC/MS method was developed to measure PDSinh-C01 concentrations in mouse blood and urine. Plasma and urine samples (60 μL) were mixed with 300-μL acetonitrile and centrifuged at 13000 rpm for 20 min, and 90 μL of the supernatant was taken for liquid chromatography/mass spectrometry (LC/MS; Waters 2695 and Micromass ZQ). […] Sodium and potassium concentrations in 3-h collected urine samples were measured by flame photometry (PFP7 Clinical Flame Photometer, Bibby Scientific Ltd, Stone. Staffs, UK). […] Blood gas was analyzed by iSTAT1 with CG4+ cartridges (Abbott Laboratories, Abbott Park, IL, USA). Urine pH was measured on freshly collected urine samples using an AB 15 pH Meter (Fisher Scientific, Pittsburgh, Pa., USA). Experiments with two groups were analyzed with Student's t-test, and experiments with 3 or more groups were analyzed using one-way analysis of variance and post-hoc Newman-Keuls multiple comparisons test. […]

Regarding `Cc1n[nH]c(-c2cc(S(=O)(=O)NC3CCCc4ccccc43)c(C)s2)c1C` (centres unmarked) [PDSinh-C01], for the setting “10 mg/kg ip with furosemide 5-50 mg/kg, 3 h urine”, the “increase in urine volume” value is listed as about 30%. Further, the “3-h urinary K+ excretion” value (with furosemide) was “no significant effect”.
